Results reported in patent US12643924B2, “Cardiac-specific targeting-peptide (CTP), compositions, and uses thereof” (University of Pittsburgh—Of the Commonwealth System of …, priority 2018, dated 2026).
Where no end group is shown, it is not given here.

How the values were obtained:
[1] = tested on: H9C2 cells; assay: Fluorescence activated cell sorting of H9C2 cells after 30 min incubation with 10 uM peptide (median Cy5.5); type: cell-based, rat; settings: for Corrected Median Cy5.5 / Raw Median Cy5.5: H9C2 cells, 30 min incubation, 10 uM peptide, single replicates; for Corrected Median Cy5.5: corrected for peptide fluorescence; for Average Correction: average of corrected median Cy5.5, H9C2 cells, FIG. 1C
Description: (§1) Variants of SEQ ID NO: 1 in which every amino acid was systematically mutated to alanine were synthesized in the University of Pittsburgh Peptide Synthesis Facility. Each variant was conjugated to the Cyanine5.5 fluorescent dye (Cy5.5). The rat cardiomyocyte cell line H9C2 (ATCC, catalogue #: CRL-1446) was incubated for 30 minutes at 37° C. with Dimethyl sulfoxide (DMSO) as a control, or the alanine peptide variants. Cells were then washed 3 times with PBS, trypsinized and resuspended, stained for live/dead cells, and then FACS sorted for Cy5.5 positive cells.

[2] = tested on: myocardial tissue; assay: Fluorescence intensity in myocardial tissue 15 minutes after injection of fluorescently-labeled CTP variants; type: in vivo; settings: mice; for fluorescence intensity in myocardial tissue compared to CTP: FIG. 6B
Description: Additionally, fluorescently-labeled CTP variants (CTP, CTP-B, H4A, P2A) or fluorescently-labeled random peptide sequence (RAN) were injected into mice and fluorescence intensity was measured in fixed myocardial tissue. Mice were injected with peptides, and, 15 minutes after injection, heart tissue was dissected, cryosectioned, stained, and analyzed for fluorescence intensity.

[3] = tested on: H9C2 cells; assay: Alanine scan: percentage of Cy5.5 positive H9C2 cells by FACS; type: cell-based, rat; settings: percentage of Cy5.5 positive H9C2 cells normalized to non-mutated peptide (SEQ ID NO: 1); Cy5.5-conjugated peptides, 30 minutes at 37° C.
Description: as §1
The percentage of Cy5.5 positive H9C2 cells, normalized to the non-mutated peptide (SEQ ID NO: 1), for each peptide variant is summarized in Table 2 below.

[4] = tested on: H9C2 cells and MEFs; type: cell-based; settings: compared to full-length peptide and DMSO control; FIG. 2E
Description: (§2) FIGS. 2A-2E are a series of bar graphs that show the transduction efficiencies and viability of various cell types incubated with Cy5.5 labeled cardiac-specific targeting peptide variants. […] CTP (Full Length): NH2-APWHLSSQYSRT-COOH (SEQ ID NO: 1); CTP-A: NH2-APWHLS-COOH (SEQ ID NO: 24); CTP-B: NH2-SQYSRT-COOH (CTP6aa; SEQ ID NO: 5); cyclic: cyclized version of the indicated peptide; CTP-Random: random, linear, 12-amino acid peptide (RAN: NH2-STLMKFCYVEQN-COOH ((SEQ ID NO: 26)); DMSO: Dimethyl sulfoxide.
(§3) Solid-phase peptide synthesis were used to synthesize the full-length form (NH2-APWHLSSQYSRT-COOH (SEQ ID NO: 1)), as well as an N-terminus 6 amino acid called CTP-A (NH2-APWHLS-COOH (SEQ ID NO: 24)), or as CTP6aa (NH2-SQYSRT-COOH (SEQ ID NO: 5)) peptides. Full length and CTP6aa were also synthesized in a cyclic forms. A random, linear, 12-amino acid long peptide (RAN: NH2-STLMKFCYVEQN-COOH (SEQ ID NO: 26)) was also synthesized to serve as control. All peptides were fluorescently labeled with Cyanine5.5 (Cy5.5). Isolated, beating neonatal mouse cardiomyocytes (CMC) were incubated with 10 μM of the peptides at 37° C. for 30 minutes, washed extensively with PBS and confocal microscopy performed. […]

[5] = tested on: H9C2 cells, MEF cells, 3T3 cells; assay: Transduction of cell lines by Cy5.5 labeled N- and C-terminal CTP variants (FACS); type: cell-based; settings: across all three cell lines; FIGS. 2A-2D
Description: as §2, §3

Q: How did the “Corrected Median Cy5.5” value ([1]; listed as P2A_001) turn out when “AAWHLSSQYSRT (also: Cy5.5 conjugate, site not given here) [P2A, alanine variant of CTP, Cy5.5 conjugated]” was run?
A: 9901.8

Q: And the “Corrected Median Cy5.5” value ([1]; listed as P2A_002)?
A: 9298.9

Q: And the “Corrected Median Cy5.5” value ([1]; listed as P2A_003)?
A: 9488.4

Q: And the “Raw Median Cy5.5” value ([1]; listed as P2A_001)?
A: 9449

Q: And the “Raw Median Cy5.5” value ([1]; listed as P2A_002)?
A: 8834

Q: What about the “Raw Median Cy5.5” value ([1]; listed as P2A_003) of the same substance?
A: 9014

Q: What about the “Average Correction” value [1] of the same substance?
A: 9535.0

Q: What about the “fluorescence intensity in myocardial tissue compared to CTP” value [2] of the same substance?
A: significantly greater

Q: And the “% transduction of H9C2 Cells” value [3]?
A: 59.15%

Q: What does the source list for “APWHLSSQYSAT (also: Cy5.5 conjugate, site not given here) [R11A, alanine variant of CTP, Cy5.5 conjugated]”?
A: Corrected Median Cy5.5 ([1]; listed as R11A_001): 10237.9; Corrected Median Cy5.5 ([1]; listed as R11A_002): 10010.7; Corrected Median Cy5.5 ([1]; listed as R11A_003): 10518.6; Raw Median Cy5.5 ([1]; listed as R11A_001): 9555; Raw Median Cy5.5 ([1]; listed as R11A_002): 9343; Raw Median Cy5.5 ([1]; listed as R11A_003): 9817; Average Correction [1]: 10255.7; % transduction of H9C2 Cells [3]: 32.75%

Q: For “APWHLSSQYSRA (also: Cy5.5 conjugate, site not given here) [T12A, alanine variant of CTP, Cy5.5 conjugated]”, which “Corrected Median Cy5.5” value ([1]; listed as T12A_001) is on record?
A: 14307.2

Q: What about the “Corrected Median Cy5.5” value ([1]; listed as T12A_002) of the same substance?
A: 15682.3

Q: And the “Corrected Median Cy5.5” value ([1]; listed as T12A_003)?
A: 15498.6

Q: What about the “Raw Median Cy5.5” value ([1]; listed as T12A_001) of the same substance?
A: 18458

Q: What about the “Raw Median Cy5.5” value ([1]; listed as T12A_002) of the same substance?
A: 20232

Q: And the “Raw Median Cy5.5” value ([1]; listed as T12A_003)?
A: 19995

Q: What about the “Average Correction” value [1] of the same substance?
A: 15162.7

Q: And the “% transduction of H9C2 Cells” value [3]?
A: 90.33%

Q: Which results are given for “APWHLSSQYSRT (also: Cy5.5 label, site not given here) [CTP, 12-amino acid cardiac-specific targeting peptide, tested conjugated to Cy5.5]”?
A: Corrected Median Cy5.5 ([1]; listed as CTP_001): 5652.0; Corrected Median Cy5.5 ([1]; listed as CTP_002): 6028.0; Corrected Median Cy5.5 ([1]; listed as CTP_003): 6308.0; Raw Median Cy5.5 ([1]; listed as CTP_001): 5652; Raw Median Cy5.5 ([1]; listed as CTP_002): 6028; Raw Median Cy5.5 ([1]; listed as CTP_003): 6308; Average Correction [1]: 5996; % transduction of H9C2 Cells [3]: 100%

Q: What does the source list for “SQYSRT (Description of Artificial Sequence: Cardiac Targeting Peptide (CTP-B)) [linear six C-terminal amino acid cardiac-specific targeting peptide]”?
A: Corrected Median Cy5.5 ([1]; listed as CTP-B_001): 5663.7; Corrected Median Cy5.5 ([1]; listed as CTP-B_002): 6469.2; Corrected Median Cy5.5 ([1]; listed as CTP-B_003): 6240.8; Raw Median Cy5.5 ([1]; listed as CTP-B_001): 4711; Raw Median Cy5.5 ([1]; listed as CTP-B_002): 5381; Raw Median Cy5.5 ([1]; listed as CTP-B_003): 5191; Average Correction [1]: 6124.6; cell viability [4]: did not alter cell viability; uptake compared to random peptide sequence and CTP [2]: superior uptake; fluorescence intensity in myocardial tissue compared to CTP [2]: significantly greater; transduction compared to the full-length peptide [5]: at least as well as the full-length peptide
